Patent US9670227B2, “Thienopyrimidine derivatives, a process for their preparation and pharmaceutical compositions containing them” (LES LABORATOIRES SERVIER, priority 2013, dated 2017)
Where two headings read alike, the source gives them in different places.

Legend:
[1] = target: Mcl-1 protein (UniProtKB primary accession number: Q07820) (Homo sapiens, UniProt Q07820); assay: Inhibition of Mcl-1 by fluorescence polarisation, Method 1; format: binding; details: read-out: IC50 (M) Mcl-1 FP
Outline: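 FP readout of relative binding potency. Mcl-1 5 nM final, fluorescein-labelled ligand 1 nM final; buffer 10 mM HEPES, 150 mM NaCl, 0.05% Tween 20, pH 7.4; 11-pt dilution series, 5% DMSO final.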

[2] = system: H929 multiple myeloma tumour line; assay: In vitro cytotoxicity, Microculture Tetrazolium Assay; format: cell-based; details: Homo sapiens, NCI-H929, 48 h, H929 cells, 48 hours exposure, MTT; read-out: IC50 (μM) MTT H929
Protocol: The cytotoxicity studies were carried out on the H929 multiple myeloma tumour line.
The cells are distributed onto microplates and exposed to the test compounds for 48 hours.

[3] = fluorescence polarisation test, Method 2 values are underlined in the patent (underlining not visible here)

Mcl-1 protein, sequence (Q07820 whole entry): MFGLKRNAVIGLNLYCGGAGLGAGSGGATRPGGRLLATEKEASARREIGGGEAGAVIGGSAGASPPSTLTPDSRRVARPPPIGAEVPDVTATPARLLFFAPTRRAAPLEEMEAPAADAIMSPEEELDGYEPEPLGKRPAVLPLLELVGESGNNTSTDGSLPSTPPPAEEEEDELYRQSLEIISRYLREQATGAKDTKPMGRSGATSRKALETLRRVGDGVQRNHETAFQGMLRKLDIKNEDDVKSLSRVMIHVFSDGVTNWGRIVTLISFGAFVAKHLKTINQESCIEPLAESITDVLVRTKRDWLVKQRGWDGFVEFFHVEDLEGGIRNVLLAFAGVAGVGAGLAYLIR

| SMILES | IC50 ([1]; fluorescence polarisation, Method 1, or Method 2) | IC50 [1, 3] | IC50 [2] |
| --- | --- | --- | --- |
| COc1ccccc1-c1nccc(COc2ccccc2CC(Oc2ncnc3sc(-c4ccc(OCCc5ccccc5)cc4)c(-c4ccc(OCCN5CCN(C)CC5)c(Cl)c4C)c23)C(=O)O)n1 (single isomer, unassigned) [Example 766] | 3.66e-09 M |  | 0.037 µM |
| Cc1c(-c2c(-c3ccc(F)cc3)sc3ncnc(OC(Cc4ccccc4OCC(F)F)C(=O)O)c23)ccc(OCCN2CCN(C)CC2)c1Cl [Example 4, (2R)-2-{[(5Sa)-5-{3-chloro-2-methyl-4-[2-(4-methylpiperazin-1-yl)ethoxy]phenyl}-6-(4-fluorophenyl)thieno[2,3-d]pyrimidin-4-yl]oxy}-3-[2-(2,2-difluoroethoxy)phenyl]propanoic acid] |  | 1.6e-08 M | 0.192 µM |
| COc1cc(COc2ccccc2CC(Oc2ncnc3sc(-c4ccc(F)cc4)c(-c4ccc(OCCN5CCN(C)CC5)c(Cl)c4C)c23)C(=O)O)nc(-c2ccccc2)n1 [Example 7, (2R)-2-{[(5Sa)-5-{3-chloro-2-methyl-4-[2-(4-methylpiperazin-1-yl)ethoxy]phenyl}-6-(4-fluorophenyl)thieno[2,3-d]pyrimidin-4-yl]oxy}-3-{2-[(6-methoxy-2-phenylpyrimidin-4-yl)methoxy]phenyl}propanoic acid] |  | 8.6e-09 M | 0.066 µM |
| COc1cc(COc2ccccc2CC(Oc2ncnc3sc(-c4ccc(F)cc4)c(-c4ccc(OCCN5CCN(C)CC5)c(Cl)c4C)c23)C(=O)O)nc(OC)n1 [Example 8, (2R)-2-{[(5Sa)-5-{3-chloro-2-methyl-4-[2-(4-methylpiperazin-1-yl)ethoxy]phenyl}-6-(4-fluorophenyl)thieno[2,3-d]pyrimidin-4-yl]oxy}-3-{2-[(2,6-dimethoxypyrimidin-4-yl)methoxy]phenyl}propanoic acid] |  | 1.6e-08 M | 0.145 µM |
| Cc1cc(COc2ccccc2CC(Oc2ncnc3sc(-c4ccc(F)cc4)c(-c4ccc(OCCN5CCN(C)CC5)c(Cl)c4C)c23)C(=O)O)no1 [Example 9, (2R)-2-{[(5Sa)-5-{3-chloro-2-methyl-4-[2-(4-methylpiperazin-1-yl)ethoxy]phenyl}-6-(4-fluorophenyl)thieno[2,3-d]pyrimidin-4-yl]oxy}-3-{2-[(5-methyl-1,2-oxazol-3-yl)methoxy]phenyl}propanoic acid] |  | 9.3e-09 M | 0.363 µM |
| Cc1c(-c2c(-c3ccc(F)cc3)sc3ncnc(OC(Cc4ccccc4OCc4ccc(F)cn4)C(=O)O)c23)ccc(OCCN2CCN(C)CC2)c1Cl [Example 10, (2R)-2-{[(5Sa)-5-{3-chloro-2-methyl-4-[2-(4-methylpiperazin-1-yl)ethoxy]phenyl}-6-(4-fluorophenyl)thieno[2,3-d]pyrimidin-4-yl]oxy}-3-{2-[(5-fluoropyridin-2-yl)methoxy]phenyl}propanoic acid] |  | 9.7e-09 M | 0.275 µM |
| Cc1c(-c2c(-c3ccc(F)cc3)sc3ncnc(OC(Cc4ccccc4OCc4cccc(-c5ccco5)n4)C(=O)O)c23)ccc(OCCN2CCN(C)CC2)c1Cl [Example 11, (2R)-2-{[(5Sa)-5-{3-chloro-2-methyl-4-[2-(4-methylpiperazin-1-yl)ethoxy]phenyl}-6-(4-fluorophenyl)thieno[2,3-d]pyrimidin-4-yl]oxy}-3-(2-{[6-(furan-2-yl)pyridin-2-yl]methoxy}phenyl)propanoic acid] |  | 4.4e-08 M | 0.13 µM |
| Cc1c(-c2c(-c3ccc(F)cc3)sc3ncnc(OC(Cc4ccccc4OCc4cccc(N5CCOCC5)n4)C(=O)O)c23)ccc(OCCN2CCN(C)CC2)c1Cl [Example 12, (2R)-2-{[(5Sa)-5-{3-chloro-2-methyl-4-[2-(4-methylpiperazin-1-yl)ethoxy]phenyl}-6-(4-fluorophenyl)thieno[2,3-d]pyrimidin-4-yl]oxy}-3-(2-{[6-(morpholin-4-yl)pyridin-2-yl]methoxy}phenyl)propanoic acid] |  | 1.6e-08 M | 0.076 µM |
| CCOc1cccc(COc2ccccc2CC(Oc2ncnc3sc(-c4ccc(F)cc4)c(-c4ccc(OCCN5CCN(C)CC5)c(Cl)c4C)c23)C(=O)O)n1 [Example 13, (2R)-2-{[(5Sa)-5-{3-chloro-2-methyl-4-[2-(4-methylpiperazin-1-yl)ethoxy]phenyl}-6-(4-fluorophenyl)thieno[2,3-d]pyrimidin-4-yl]oxy}-3-{2-[(6-ethoxypyridin-2-yl)methoxy]phenyl}propanoic acid] |  | 2.2e-08 M | 0.146 µM |
| Cc1c(-c2c(-c3ccc(F)cc3)sc3ncnc(OC(Cc4ccccc4OCc4ccn(CC5CCCCC5)n4)C(=O)O)c23)ccc(OCCN2CCN(C)CC2)c1Cl [Example 15, (2R)-2-{[(5Sa)-5-{3-chloro-2-methyl-4-[2-(4-methylpiperazin-1-yl)ethoxy]phenyl}-6-(4-fluorophenyl)thieno[2,3-d]pyrimidin-4-yl]oxy}-3-(2-{[1-(cyclohexylmethyl)-1H-pyrazol-3-yl]methoxy}phenyl)propanoic acid] |  | 3.7e-08 M | 0.494 µM |
| Cc1c(-c2c(-c3ccc(F)cc3)sc3ncnc(OC(Cc4ccccc4OCc4ccnc(N5CCOCC5)c4)C(=O)O)c23)ccc(OCCN2CCN(C)CC2)c1Cl [Example 20, (2R)-2-{[(5Sa)-5-{3-chloro-2-methyl-4-[2-(4-methylpiperazin-1-yl)ethoxy]phenyl}-6-(4-fluorophenyl)thieno[2,3-d]pyrimidin-4-yl]oxy}-3-(2-{[2-(morpholin-4-yl)pyridin-4-yl]methoxy}phenyl)propanoic acid] |  | 6.4e-09 M | 0.08 µM |
| Cc1c(-c2c(-c3ccc(F)cc3)sc3ncnc(OC(Cc4ccccc4OCc4ccnc(C(C)(C)C)n4)C(=O)O)c23)ccc(OCCN2CCN(C)CC2)c1Cl [Example 23, (2R)-3-{2-[(2-tert-butylpyrimidin-4-yl)methoxy]phenyl}-2-{[(5Sa)-5-{3-chloro-2-methyl-4-[2-(4-methylpiperazin-1-yl)ethoxy]phenyl}-6-(4-fluorophenyl)thieno[2,3-d]pyrimidin-4-yl]oxy}propanoic acid] |  | 2.4e-08 M | 0.054 µM |
| Cc1c(-c2c(-c3ccc(F)cc3)sc3ncnc(OC(Cc4ccccc4OCc4ccnc(C(C)C)n4)C(=O)O)c23)ccc(OCCN2CCN(C)CC2)c1Cl [Example 24, (2R)-2-{[(5Sa)-5-{3-chloro-2-methyl-4-[2-(4-methylpiperazin-1-yl)ethoxy]phenyl}-6-(4-fluorophenyl)thieno[2,3-d]pyrimidin-4-yl]oxy}-3-(2-{[2-(propan-2-yl)pyrimidin-4-yl]methoxy}phenyl)propanoic acid] |  | 8.1e-09 M | 0.012 µM |

Second part, led by results:

| IC50 ([1]; fluorescence polarisation, Method 1, or Method 2) | IC50 [1, 3] | SMILES | IC50 [2] |
| --- | --- | --- | --- |
|  | 5.9e-09 M | Cc1cc(COc2ccccc2CC(Oc2ncnc3sc(-c4ccc(F)cc4)c(-c4ccc(OCCN5CCN(C)CC5)c(Cl)c4C)c23)C(=O)O)ccn1 [Example 16, (2R)-2-{[(5Sa)-5-{3-chloro-2-methyl-4-[2-(4-methylpiperazin-1-yl)ethoxy]phenyl}-6-(4-fluorophenyl)thieno[2,3-d]pyrimidin-4-yl]oxy}-3-{2-[(2-methylpyridin-4-yl)methoxy]phenyl}propanoic acid] | 0.095 µM |
|  | 1.2e-08 M | Cc1c(-c2c(-c3ccc(F)cc3)sc3ncnc(OC(Cc4ccccc4OCc4ccnc(C(F)(F)F)c4)C(=O)O)c23)ccc(OCCN2CCN(C)CC2)c1Cl [Example 17, (2R)-2-{[(5Sa)-5-{3-chloro-2-methyl-4-[2-(4-methylpiperazin-1-yl)ethoxy]phenyl}-6-(4-fluorophenyl)thieno[2,3-d]pyrimidin-4-yl]oxy}-3-(2-{[2-(trifluoromethyl)pyridin-4-yl]methoxy}phenyl)propanoic acid] | 0.062 µM |
|  | 8.3e-09 M | Cc1c(-c2c(-c3ccc(F)cc3)sc3ncnc(OC(Cc4ccccc4OCc4ccnc(-c5cccs5)c4)C(=O)O)c23)ccc(OCCN2CCN(C)CC2)c1Cl [Example 18, (2R)-2-{[(5Sa)-5-{3-chloro-2-methyl-4-[2-(4-methylpiperazin-1-yl)ethoxy]phenyl}-6-(4-fluorophenyl)thieno[2,3-d]pyrimidin-4-yl]oxy}-3-(2-{[2-(thiophen-2-yl)pyridin-4-yl]methoxy}phenyl)propanoic acid] | 0.076 µM |
|  | 4.4e-09 M | Cc1c(-c2c(-c3ccc(F)cc3)sc3ncnc(OC(Cc4ccccc4OCc4ccnc(Cl)c4)C(=O)O)c23)ccc(OCCN2CCN(C)CC2)c1Cl [Example 19, (2R)-2-{[(5Sa)-5-{3-chloro-2-methyl-4-[2-(4-methylpiperazin-1-yl)ethoxy]phenyl}-6-(4-fluorophenyl)thieno[2,3-d]pyrimidin-4-yl]oxy}-3-{2-[(2-chloropyridin-4-yl)methoxy]phenyl}propanoic acid] | 0.064 µM |
|  | 1.6e-08 M | COc1cc(COc2ccccc2CC(Oc2ncnc3sc(-c4ccc(F)cc4)c(-c4ccc(OCCN5CCN(C)CC5)c(Cl)c4C)c23)C(=O)O)ccn1 [Example 21, (2R)-2-{[(5Sa)-5-{3-chloro-2-methyl-4-[2-(4-methylpiperazin-1-yl)ethoxy]phenyl}-6-(4-fluorophenyl)thieno[2,3-d]pyrimidin-4-yl]oxy}-3-{2-[(2-methoxypyridin-4-yl)methoxy]phenyl}propanoic acid] | 0.162 µM |
|  | 8.3e-09 M | COCCOc1cc(COc2ccccc2CC(Oc2ncnc3sc(-c4ccc(F)cc4)c(-c4ccc(OCCN5CCN(C)CC5)c(Cl)c4C)c23)C(=O)O)ccn1 [Example 22, (2R)-2-{[(5Sa)-5-{3-chloro-2-methyl-4-[2-(4-methylpiperazin-1-yl)ethoxy]phenyl}-6-(4-fluorophenyl)thieno[2,3-d]pyrimidin-4-yl]oxy}-3-(2-{[2-(2-methoxyethoxy)pyridin-4-yl]methoxy}phenyl)propanoic acid] | 0.092 µM |
